Where two headings read alike, the source gives them in different places.
Key:
MAP2K4 = assay: Kinobeads competition binding: MAP2K4; set-up: species or system human; conditions: target MAP2K4
NUAK2 = molecular target: T1, NUAK2 (Homo sapiens, UniProt Q9H093); assay: Kinobeads competition binding: NUAK2; conditions: target NUAK2
T1 construct: a mixture of lysates from five cancer cell lines; endogenous in cells
T1 sequence (Q9H093 1-628): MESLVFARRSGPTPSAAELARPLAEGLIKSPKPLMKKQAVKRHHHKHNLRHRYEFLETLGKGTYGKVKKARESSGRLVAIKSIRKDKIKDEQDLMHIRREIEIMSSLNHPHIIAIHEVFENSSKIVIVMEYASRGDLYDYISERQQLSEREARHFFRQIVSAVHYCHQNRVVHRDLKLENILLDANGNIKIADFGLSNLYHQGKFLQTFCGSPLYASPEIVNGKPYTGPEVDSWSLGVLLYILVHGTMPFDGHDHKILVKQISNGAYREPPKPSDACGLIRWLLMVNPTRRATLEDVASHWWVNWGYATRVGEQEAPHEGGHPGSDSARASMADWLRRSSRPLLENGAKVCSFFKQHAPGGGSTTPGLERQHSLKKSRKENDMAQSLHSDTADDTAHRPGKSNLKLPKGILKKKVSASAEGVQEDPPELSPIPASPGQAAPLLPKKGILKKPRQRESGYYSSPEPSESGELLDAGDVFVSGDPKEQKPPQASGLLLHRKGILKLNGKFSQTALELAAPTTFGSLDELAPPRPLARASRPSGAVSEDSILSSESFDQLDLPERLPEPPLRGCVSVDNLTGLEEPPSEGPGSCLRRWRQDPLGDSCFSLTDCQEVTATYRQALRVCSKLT
Text: Supplement 41589_2023_1459_MOESM4_ESM.xlsx, sheet "CATDS matrix" | column: NUAK2

MAP2K5 = assay: Kinobeads competition binding: MAP2K5; set-up: species or system human; conditions: target MAP2K5
MAP4K3 = assay: Kinobeads competition binding: MAP4K3; set-up: species or system human; conditions: target MAP4K3
NEK1 = assay: Kinobeads competition binding: NEK1; set-up: species or system human; conditions: target NEK1
OPA1 = assay: Kinobeads competition binding: OPA1; set-up: species or system human; conditions: target OPA1;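 further: target engagement share of this target among all targets at its Kdapp concentration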
ERN1 = molecular target: T2, ERN1 (Homo sapiens, UniProt O75460); assay: Kinobeads competition binding: ERN1; conditions: target ERN1
T2 construct: endogenous in cells
Text: Supplement 41589_2023_1459_MOESM4_ESM.xlsx, sheet "CATDS matrix" | column: ERN1

CSK = molecular target: T3, CSK (Homo sapiens, UniProt P41240); assay: Kinobeads competition binding: CSK; conditions: target CSK
T3 construct: endogenous in cells

CSNK1A1 = assay: Kinobeads competition binding: CSNK1A1; set-up: species or system human; conditions: target CSNK1A1
CDK1 = assay: Kinobeads competition binding: CDK1; set-up: species or system human; conditions: target CDK1
AKT1 = molecular target: T4, AKT1 (Homo sapiens, UniProt P31749); assay: Kinobeads competition binding: AKT1; conditions: target AKT1
T4 construct: endogenous in cells
Text: Supplement 41589_2023_1459_MOESM4_ESM.xlsx, sheet "CATDS matrix" | column: AKT1

PIM3 = molecular target: T5, PIM3 (Homo sapiens, UniProt Q86V86); assay: Kinobeads competition binding: PIM3; conditions: target PIM3
T5 construct: a mixture of lysates from five cancer cell lines; endogenous in cells
Text: Supplement 41589_2023_1459_MOESM4_ESM.xlsx, sheet "CATDS matrix" | column: PIM3

CLK4 = molecular target: T6, CLK4 (Homo sapiens, UniProt Q9HAZ1); assay: Kinobeads two-dose competition binding: CLK4; conditions: for CATDS: target CLK4;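 on CATDS: target engagement share of this target among all targets at its Kdapp concentration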
T6 construct: to maximize the representation of endogenous proteins; endogenous in cells

CDK6 = molecular target: T7, CDK6 (Homo sapiens, UniProt Q00534); assay: Kinobeads competition binding: CDK6; conditions: target CDK6
T7 construct: endogenous in cells

DAPK3 = molecular target: T8, DAPK3 (Homo sapiens, UniProt O43293); assay: Kinobeads competition binding: DAPK3; conditions: target DAPK3;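 further: share of all-target engagement taken by this protein at its own Kdapp concentration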
T8 construct: endogenous in cells

FLT3 = assay: Kinobeads two-dose competition binding: FLT3; set-up: species or system human; conditions: for CATDS: target FLT3
DCK = assay: Kinobeads competition binding: DCK; set-up: species or system human; conditions: target DCK;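 further: share of total target engagement due to this protein at one drug concentration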
EPHA4 = molecular target: T9, EPHA4 (Homo sapiens, UniProt P54764); assay: Kinobeads competition binding: EPHA4; conditions: target EPHA4
T9 construct: endogenous in cells
Text: Supplement 41589_2023_1459_MOESM4_ESM.xlsx, sheet "CATDS matrix" | column: EPHA4

BMPR1B = molecular target: T10, BMPR1B (Homo sapiens, UniProt O00238); assay: Kinobeads competition binding: BMPR1B; conditions: target BMPR1B;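 further: selectivity score: engagement of this protein divided by summed engagement of all targets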
T10 construct: endogenous in cells

GSK3B = molecular target: T11, GSK3B (Homo sapiens, UniProt P49841); assay: Kinobeads full dose-response competition binding: GSK3B; conditions: Gene Name GSK3B; for Relative Intensity 0.3nM: 0.3nM compound; for Relative Intensity 0.3nM / Relative Intensity 1nM / Relative Intensity 3nM / Relative Intensity 10nM / Relative Intensity 30nM / Relative Intensity 100nM / Relative Intensity 300nM / Relative Intensity 1000nM: DMSO = 1; for Relative Intensity 1nM: 1nM compound; for Relative Intensity 3nM: 3nM compound; for Relative Intensity 10nM: 10nM compound; for Relative Intensity 30nM: 30nM compound; for Relative Intensity 100nM: 100nM compound; for Relative Intensity 300nM: 300nM compound; for Relative Intensity 1000nM: 1000nM compound; for Kd: EC50 with Correction, read-out: apparent Kd; for Kd / EC50: doses in nM; for EC50: eight-dose curve fit
T11 construct: endogenous in cells

[1] = molecular target: T12, endogenous kinases and other proteins enriched by Kinobeads from mixed lysates of K-562, COLO-205, MV-4-11, SK-N-BE(2) and OVCAR-8 (Homo sapiens, UniProt P12931); assay: Kinobeads competition binding profiling, two doses (100 nM and 1 µM);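 further: inhibitor preincubated 45 min at 4 °C in cell lysate, then bead pulldown. Bound protein quantified by label-free mass spectrometry relative to DMSO vehicle control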
T12 construct: to maximize the representation of endogenous proteins; endogenous in cells

[2] = molecular target: T13, endogenous kinases and other proteins enriched by Kinobeads from mixed lysates of K-562, COLO-205, MV-4-11, SK-N-BE(2) and OVCAR-8 (Homo sapiens, UniProt P23458); assay: as above
T13 construct: to maximize the representation of endogenous proteins; endogenous in cells

[3] = molecular target: T14, endogenous kinases and other proteins enriched by Kinobeads from mixed lysates of K-562, COLO-205, MV-4-11, SK-N-BE(2) and OVCAR-8 (Homo sapiens, UniProt P06239); assay: as above
T14 construct: endogenous in cells

T2 sequence (O75460 19-977): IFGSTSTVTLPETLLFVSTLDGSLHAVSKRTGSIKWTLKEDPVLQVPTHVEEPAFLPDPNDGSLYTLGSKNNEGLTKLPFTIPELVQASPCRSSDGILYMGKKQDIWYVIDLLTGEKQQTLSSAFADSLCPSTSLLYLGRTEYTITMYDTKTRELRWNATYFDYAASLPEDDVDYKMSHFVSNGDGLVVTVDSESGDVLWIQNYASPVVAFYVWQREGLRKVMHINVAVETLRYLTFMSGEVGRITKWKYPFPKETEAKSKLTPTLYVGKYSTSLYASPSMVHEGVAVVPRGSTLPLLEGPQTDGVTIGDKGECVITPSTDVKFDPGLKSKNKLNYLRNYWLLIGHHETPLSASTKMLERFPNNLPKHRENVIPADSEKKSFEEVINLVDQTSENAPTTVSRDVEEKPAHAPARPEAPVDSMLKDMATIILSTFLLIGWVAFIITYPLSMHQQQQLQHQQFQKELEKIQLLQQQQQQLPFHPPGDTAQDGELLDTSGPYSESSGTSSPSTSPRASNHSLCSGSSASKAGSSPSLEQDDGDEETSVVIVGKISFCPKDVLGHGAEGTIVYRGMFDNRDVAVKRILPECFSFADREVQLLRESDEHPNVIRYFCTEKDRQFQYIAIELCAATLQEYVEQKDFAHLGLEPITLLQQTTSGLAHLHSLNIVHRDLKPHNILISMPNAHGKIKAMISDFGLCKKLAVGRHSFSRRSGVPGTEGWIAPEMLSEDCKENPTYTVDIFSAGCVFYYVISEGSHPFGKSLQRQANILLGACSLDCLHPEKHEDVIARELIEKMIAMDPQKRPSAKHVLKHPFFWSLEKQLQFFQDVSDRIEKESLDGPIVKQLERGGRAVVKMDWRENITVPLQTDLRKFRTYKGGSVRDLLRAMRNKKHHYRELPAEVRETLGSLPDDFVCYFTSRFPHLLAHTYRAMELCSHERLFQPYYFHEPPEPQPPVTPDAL
T11 sequence (P49841 whole entry): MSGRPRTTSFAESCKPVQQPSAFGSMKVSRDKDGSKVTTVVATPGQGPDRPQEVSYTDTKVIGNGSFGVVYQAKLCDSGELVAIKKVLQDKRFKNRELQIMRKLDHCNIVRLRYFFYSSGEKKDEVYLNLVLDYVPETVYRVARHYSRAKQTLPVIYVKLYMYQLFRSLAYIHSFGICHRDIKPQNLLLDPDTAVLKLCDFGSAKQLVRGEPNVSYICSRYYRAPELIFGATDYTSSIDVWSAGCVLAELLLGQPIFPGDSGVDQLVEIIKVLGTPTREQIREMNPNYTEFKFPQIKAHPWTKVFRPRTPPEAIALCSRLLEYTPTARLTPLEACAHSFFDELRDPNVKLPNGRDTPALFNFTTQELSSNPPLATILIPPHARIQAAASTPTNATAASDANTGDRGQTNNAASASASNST
T7 sequence (Q00534 whole entry): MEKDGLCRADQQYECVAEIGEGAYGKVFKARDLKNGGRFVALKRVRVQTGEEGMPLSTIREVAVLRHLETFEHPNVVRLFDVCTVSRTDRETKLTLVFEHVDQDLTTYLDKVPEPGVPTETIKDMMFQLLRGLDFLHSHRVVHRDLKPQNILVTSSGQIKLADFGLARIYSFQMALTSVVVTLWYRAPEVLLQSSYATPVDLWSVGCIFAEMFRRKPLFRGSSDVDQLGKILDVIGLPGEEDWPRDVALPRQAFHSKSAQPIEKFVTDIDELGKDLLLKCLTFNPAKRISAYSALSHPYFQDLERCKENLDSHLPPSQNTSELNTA
T6 sequence (Q9HAZ1 whole entry): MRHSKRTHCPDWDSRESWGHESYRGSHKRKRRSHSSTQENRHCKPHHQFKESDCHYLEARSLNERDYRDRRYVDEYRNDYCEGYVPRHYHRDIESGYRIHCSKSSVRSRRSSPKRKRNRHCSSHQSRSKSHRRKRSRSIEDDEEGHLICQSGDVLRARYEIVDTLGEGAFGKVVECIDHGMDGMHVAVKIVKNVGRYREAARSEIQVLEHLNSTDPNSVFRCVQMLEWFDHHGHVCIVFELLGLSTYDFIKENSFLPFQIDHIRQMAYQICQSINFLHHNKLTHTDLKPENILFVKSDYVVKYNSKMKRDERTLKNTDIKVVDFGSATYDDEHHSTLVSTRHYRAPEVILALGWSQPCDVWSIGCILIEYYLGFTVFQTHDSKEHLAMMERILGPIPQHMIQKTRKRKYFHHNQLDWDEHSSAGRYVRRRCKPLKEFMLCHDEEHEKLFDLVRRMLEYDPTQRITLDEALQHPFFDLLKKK
T4 sequence (P31749 whole entry): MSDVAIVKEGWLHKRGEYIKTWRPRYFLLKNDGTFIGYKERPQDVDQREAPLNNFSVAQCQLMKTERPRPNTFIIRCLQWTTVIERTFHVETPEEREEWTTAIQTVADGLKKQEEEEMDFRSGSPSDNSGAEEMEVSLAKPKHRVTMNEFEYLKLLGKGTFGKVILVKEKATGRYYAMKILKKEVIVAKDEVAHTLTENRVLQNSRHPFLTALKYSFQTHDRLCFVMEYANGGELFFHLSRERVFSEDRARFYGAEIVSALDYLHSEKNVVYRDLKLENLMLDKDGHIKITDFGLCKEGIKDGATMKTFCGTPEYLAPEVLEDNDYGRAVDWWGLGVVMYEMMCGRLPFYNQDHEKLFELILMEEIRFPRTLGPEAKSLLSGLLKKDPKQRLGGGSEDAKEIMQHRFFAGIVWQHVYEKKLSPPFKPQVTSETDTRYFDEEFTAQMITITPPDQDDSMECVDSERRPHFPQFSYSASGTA
T8 sequence (O43293 whole entry): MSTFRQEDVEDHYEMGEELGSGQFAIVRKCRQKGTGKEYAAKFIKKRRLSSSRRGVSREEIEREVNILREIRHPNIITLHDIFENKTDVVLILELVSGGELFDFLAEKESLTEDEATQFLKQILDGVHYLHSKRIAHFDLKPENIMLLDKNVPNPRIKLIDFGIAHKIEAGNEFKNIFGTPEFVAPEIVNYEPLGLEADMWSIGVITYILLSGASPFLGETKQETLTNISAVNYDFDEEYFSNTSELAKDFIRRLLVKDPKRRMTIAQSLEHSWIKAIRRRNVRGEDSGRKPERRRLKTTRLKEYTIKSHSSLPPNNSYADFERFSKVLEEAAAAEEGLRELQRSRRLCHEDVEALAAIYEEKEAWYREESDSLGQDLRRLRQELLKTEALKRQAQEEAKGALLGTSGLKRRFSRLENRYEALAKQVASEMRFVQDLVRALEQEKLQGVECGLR
T3 sequence (P41240 whole entry): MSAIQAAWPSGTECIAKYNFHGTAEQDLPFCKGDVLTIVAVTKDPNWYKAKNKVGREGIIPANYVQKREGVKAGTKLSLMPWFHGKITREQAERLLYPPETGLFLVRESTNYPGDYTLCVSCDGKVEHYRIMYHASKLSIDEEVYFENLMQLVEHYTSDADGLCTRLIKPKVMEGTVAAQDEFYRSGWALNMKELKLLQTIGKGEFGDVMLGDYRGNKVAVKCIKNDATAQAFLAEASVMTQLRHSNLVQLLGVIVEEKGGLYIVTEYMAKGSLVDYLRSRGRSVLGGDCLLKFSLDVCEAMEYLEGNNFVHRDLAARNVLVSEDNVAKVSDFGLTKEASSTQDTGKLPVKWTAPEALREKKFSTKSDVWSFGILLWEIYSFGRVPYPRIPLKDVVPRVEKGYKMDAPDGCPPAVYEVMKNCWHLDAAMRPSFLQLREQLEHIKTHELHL
T10 sequence (O00238 14-502): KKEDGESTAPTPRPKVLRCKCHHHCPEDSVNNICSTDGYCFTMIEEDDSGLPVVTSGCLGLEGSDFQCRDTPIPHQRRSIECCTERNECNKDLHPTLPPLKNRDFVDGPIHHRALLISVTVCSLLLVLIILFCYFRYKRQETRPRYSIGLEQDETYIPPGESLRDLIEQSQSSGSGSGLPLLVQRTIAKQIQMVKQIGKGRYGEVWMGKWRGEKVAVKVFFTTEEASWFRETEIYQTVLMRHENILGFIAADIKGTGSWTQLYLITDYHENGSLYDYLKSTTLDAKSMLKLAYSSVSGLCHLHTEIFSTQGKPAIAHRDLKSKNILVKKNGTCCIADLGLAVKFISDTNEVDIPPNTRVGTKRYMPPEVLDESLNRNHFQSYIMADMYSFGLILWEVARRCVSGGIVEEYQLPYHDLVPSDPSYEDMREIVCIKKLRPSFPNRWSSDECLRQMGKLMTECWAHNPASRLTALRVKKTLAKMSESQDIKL
T12 sequence (P12931 whole entry): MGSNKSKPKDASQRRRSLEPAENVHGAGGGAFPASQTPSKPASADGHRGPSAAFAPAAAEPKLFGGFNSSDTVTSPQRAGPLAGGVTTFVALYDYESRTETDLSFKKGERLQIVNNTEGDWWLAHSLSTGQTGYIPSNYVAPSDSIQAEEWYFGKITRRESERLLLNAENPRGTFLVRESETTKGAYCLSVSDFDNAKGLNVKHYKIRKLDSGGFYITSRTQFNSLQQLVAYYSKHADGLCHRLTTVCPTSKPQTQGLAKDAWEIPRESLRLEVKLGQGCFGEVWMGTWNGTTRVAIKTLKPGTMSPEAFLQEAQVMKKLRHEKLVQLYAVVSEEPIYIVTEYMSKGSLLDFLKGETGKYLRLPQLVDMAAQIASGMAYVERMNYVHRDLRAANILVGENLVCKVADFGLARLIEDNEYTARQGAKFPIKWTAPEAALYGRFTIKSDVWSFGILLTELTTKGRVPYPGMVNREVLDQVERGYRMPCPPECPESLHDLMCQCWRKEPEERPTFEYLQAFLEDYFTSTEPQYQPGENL

Row | SMILES | CATDS (MAP2K4) | CATDS (NUAK2) | CATDS (MAP2K5) | CATDS (MAP4K3) | CATDS (NEK1) | CATDS (OPA1) | CATDS (ERN1) | CATDS (CSK) | CATDS (CSNK1A1) | CATDS (CDK1) | CATDS (AKT1) | CATDS (PIM3) | CATDS (CLK4) | CATDS (CDK6) | CATDS (DAPK3) | CATDS (FLT3) | CATDS (DCK) | CATDS (EPHA4) | CATDS (BMPR1B) | other results
1 | CCc1cc2c(cc1N1CCC(N3CCOCC3)CC1)C(C)(C)c1[nH]c3cc(C#N)ccc3c1C2=O [Alectinib] | 0 | 0 | 0 | 0 | 0 | 0 | 0 | 0 | 0 | 0 | 0 | 0 | 0 | 0 | 0 | 0 | 0 | 0 | 0 | 
2 | CN(C)C/C=C/C(=O)Nc1cc2c(Nc3ccc(F)c(Cl)c3)ncnc2cc1O[C@H]1CCOC1 [Afatinib] |  | 0 |  |  |  | 0 | 0 |  |  |  | 0 | 0 | 0 |  |  |  | 0 | 0 |  | 
3 | Nc1ncnc2[nH]c(-c3ccccc3)nc12 [AH5015_KCGS] | 0 | 0 | 0 | 0 | 0 | 0 | 0 | 0 | 0 | 0 | 0 | 0 | 0 | 0 | 0 | 0 | 0 | 0 | 0 | potency estimated from few doses (CLK4; Kinobeads two-dose, Drugmatrix - all 2, read-out: apparent Kd CLK4): > 1000 nM
4 | CCN1CCN(Cc2ccc(Nc3ncc(F)c(-c4cc(F)c5nc(C)n(C(C)C)c5c4)n3)nc2)CC1 [Abemaciclib] | 0 | 0 | 0 | 0 | 0 | 0 | 0 | 0 | 0 |  | 0 | 0 |  |  | 0 | 0 | 0 | 0 | 0 | 
5 | CCn1c(-c2nonc2N)nc2c(C#CC(C)(C)O)nc(OCCN)cc21 [GSK902056A] |  |  |  |  |  |  |  |  |  |  |  |  |  |  |  |  |  |  |  | Relative Intensity 0.3nM (GSK3B): 1.05; Relative Intensity 1nM (GSK3B): 1.092; Relative Intensity 3nM (GSK3B): 1.084; Relative Intensity 10nM (GSK3B): 0.9805; Relative Intensity 30nM (GSK3B): 0.9007; Relative Intensity 100nM (GSK3B): 0.8389; Relative Intensity 300nM (GSK3B): 0.5163; Relative Intensity 1000nM (GSK3B): 0.2905; Kd (GSK3B): 288 nM; EC50 (GSK3B): 296 nM
6 | C[C@]12O[C@H](C[C@]1(O)CO)n1c3ccccc3c3c4c(c5c6ccccc6n2c5c31)CNC4=O [Lestaurtinib] |  |  |  |  |  |  |  |  |  |  |  |  |  |  |  |  |  |  |  | potency estimated from few doses ([1]; read-out: Lestaurtinib Drugmatrix value, Gene Name SRC): 618 nM; potency estimated from few doses ([2]; read-out: Lestaurtinib Drugmatrix value (apparent Kd), Gene Name JAK1, target JAK1, each column = one Lestaurtinib control run_replicate): 881 nM; potency estimated from few doses ([3]; read-out: Lestaurtinib Drugmatrix value (apparent Kd), Gene Name LCK, target LCK, each column = one Lestaurtinib control run_replicate): 550 nM; potency estimated from few doses (CLK4; read-out: Lestaurtinib Drugmatrix value, Gene Name CLK4): 50.2 nM
7 | N#CC1(c2ccc(NC(=O)c3cccnc3NCc3ccncc3)cc2)CCCC1 [Apatinib] | 0 | 0 | 0 | 0 | 0 | 0 | 0 | 0 | 0 | 0 | 0 | 0 | 0 | 0 | 0 | 0 | 0 | 0 | 0 | 
8 | CCn1c(-c2nonc2N)nc2c(C#CC(C)(C)O)nc(OCCNC)cc21 [GSK949675A] |  |  |  |  |  |  |  |  |  |  |  |  |  |  |  |  |  |  |  | Relative Intensity 0.3nM (GSK3B): 0.987; Relative Intensity 1nM (GSK3B): 0.9621; Relative Intensity 3nM (GSK3B): 1.1; Relative Intensity 10nM (GSK3B): 0.9042; Relative Intensity 30nM (GSK3B): 0.9241; Relative Intensity 100nM (GSK3B): 0.7846; Relative Intensity 300nM (GSK3B): 0.5456; Relative Intensity 1000nM (GSK3B): 0.3036; Kd (GSK3B): 171 nM; EC50 (GSK3B): 322 nM
9 | COc1cc(Nc2ncc3c(C)nc(-c4cc5ccccc5[nH]4)n3n2)cc(OC)c1OC [GW869516X] |  |  |  |  |  |  |  |  |  |  |  |  |  |  |  |  |  |  |  | Kinobeads Data ([1]; SRC): no target; Kinobeads Data ([2]; JAK1(JH2domain-pseudokinase)): no target; Kinobeads Data ([3]; LCK): no target; Kinobeads Data (FLT3; FLT3): no target

Source: publication PMC11062922 (Nature Chemical Biology, 2023)
